According to PubChem BioAssay AID330 (DTP/NCI, 2004):
Where “and” joins values, the source holds several entries; their conditions need not be identical. Identical values can stand only once. Inconclusive results and toxic doses are left out.

Test system: P388 leukemia ip, CD2F1 mice, survival T/C
Assay: NCI In Vivo Anticancer Drug Screen. Data for tumor model P388 Leukemia (intraperitoneal) in CD2F1 (CDF1) mice
Settings: endpoint: median survival time, higher = longer survival
Procedure, shortened: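 Mice carrying the transplanted tumor received test compound or vehicle. Survival was recorded in each group, and the value is the treated-group measurement divided by that of the vehicle-treated control group.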

[1] = dose: 25.0 mg/kg/injection, schedule: Q01DX009 (ip), vehicle: saline with Tween-80
[2] = dose: 60.0 mg/kg/injection, schedule: Q01DX005 (ip), vehicle: saline with Tween-80

Structure (SMILES): COc1cccc2c1C(=O)c1c(O)c3c(c(O)c1C2=O)C[C@@](O)(C(=O)CO)C[C@@H]3OC1CC(NC=O)C(O)C(C)O1 (stereo not given in full)
- T/C (dose: 1.56 mg/kg/injection, schedule: Q01DX009 (ip), vehicle: Klucel (hydroxypropylcellulose) (HPC)): 95 % of control
- T/C (dose: 7.4 mg/kg/injection, schedule: Q01DX009 (ip), vehicle: other): 163 % of control
- T/C (dose: 11.0 mg/kg/injection, schedule: Q01DX009 (ip), vehicle: other): 157 % of control
- T/C (dose: 16.5 mg/kg/injection, schedule: Q01DX009 (ip), vehicle: other): 163 % of control
- T/C (dose: 25.0 mg/kg/injection, schedule: Q01DX009 (ip), vehicle: other): 192 % of control
- T/C (dose: 37.5 mg/kg/injection, schedule: Q01DX009 (ip), vehicle: other): 201 % of control
- T/C (dose: 50.0 mg/kg/injection, schedule: Q01DX009 (ip), vehicle: Klucel (hydroxypropylcellulose) (HPC)): 121 % of control

Structure (SMILES): CSCC1(CCO)OCCO1
- T/C [1]: 100 % of control
- T/C (dose: 50.0 mg/kg/injection, schedule: Q01DX009 (ip), vehicle: saline with Tween-80): 94 % of control
- T/C (dose: 100.0 mg/kg/injection, schedule: Q01DX009 (ip), vehicle: saline with Tween-80): 94 % of control

Structure (SMILES): BrC=C1c2ccccc2-c2ccccc21
- T/C (dose: 100.0 mg/kg/injection, schedule: Q04DX003 (ip), vehicle: Klucel (hydroxypropylcellulose) (HPC)): 100 % of control
- T/C (dose: 200.0 mg/kg/injection, schedule: Q04DX003 (ip), vehicle: Klucel (hydroxypropylcellulose) (HPC)): 91 % of control
- T/C (dose: 400.0 mg/kg/injection, schedule: Q04DX003 (ip), vehicle: Klucel (hydroxypropylcellulose) (HPC)): 102 % of control

Structure (SMILES): Cc1nc2c([N+](=O)[O-])c(Nc3ccccc3)c([N+](=O)[O-])cc2[nH]1
- T/C (dose: 25.0 mg/kg/injection, schedule: Q04DX003 (ip), vehicle: saline with Tween-80): 92 % of control
- T/C (dose: 50.0 mg/kg/injection, schedule: Q04DX003 (ip), vehicle: saline with Tween-80): 101 % of control
- T/C (dose: 100.0 mg/kg/injection, schedule: Q04DX003 (ip), vehicle: saline with Tween-80): 104 % of control and 90 % of control

Structure (SMILES): COc1cccc2c1C(=O)c1c(O)c3c(c(O)c1C2=O)CC(O)(C(C)=O)CC3OC1CC(NC(=O)C(CCCCN)NC(=O)C(N)CCN)C(O)C(C)O1 (stereo not given)
- T/C (dose: 2.5 mg/kg/injection, schedule: Q04DX003 (ip), vehicle: water): 94 % of control
- T/C (dose: 5.0 mg/kg/injection, schedule: Q04DX003 (ip), vehicle: water): 94 % of control
- T/C (dose: 10.0 mg/kg/injection, schedule: Q04DX003 (ip), vehicle: water): 98 % of control
- T/C (dose: 20.0 mg/kg/injection, schedule: Q04DX003 (ip), vehicle: water): 101 % of control
- T/C (dose: 40.0 mg/kg/injection, schedule: Q04DX003 (ip), vehicle: water): 105 % of control
- T/C (dose: 80.0 mg/kg/injection, schedule: Q04DX003 (ip), vehicle: distilled water + Tween-80): 96 % of control
- T/C (dose: 160.0 mg/kg/injection, schedule: Q04DX003 (ip), vehicle: distilled water + Tween-80): 105 % of control
- T/C (dose: 320.0 mg/kg/injection, schedule: Q04DX003 (ip), vehicle: distilled water + Tween-80): 105 % of control

Structure (SMILES): CC1=NC(C)(COC(=O)C2(C)NC(C)(CO)CO2)COC1=O (stereo not given)
- T/C (dose: 60.0 mg/kg/injection, schedule: Q01DX005 (ip), vehicle: saline): 105 % of control
- T/C (dose: 120.0 mg/kg/injection, schedule: Q01DX005 (ip), vehicle: saline): 97 % of control
- T/C (dose: 240.0 mg/kg/injection, schedule: Q01DX005 (ip), vehicle: saline): 97 % of control

Structure (SMILES): O=C(Nc1cccnc1)c1ccccc1
- T/C (dose: 6.25 mg/kg/injection, schedule: Q01DX009 (ip), vehicle: saline with Tween-80): 100 % of control
- T/C (dose: 12.5 mg/kg/injection, schedule: Q01DX009 (ip), vehicle: saline with Tween-80): 100 % of control
- T/C [1]: 100 % of control

Structure (SMILES): COC(=O)C(C)(OC)SC (stereo not given)
- T/C [2]: 106 % of control
- T/C (dose: 120.0 mg/kg/injection, schedule: Q01DX005 (ip), vehicle: saline with Tween-80): 100 % of control
- T/C (dose: 240.0 mg/kg/injection, schedule: Q01DX005 (ip), vehicle: saline with Tween-80): 98 % of control

Structure (SMILES): O=C(CNC(=O)Nc1ccc(Cl)c(Cl)c1)N/N=C/c1ccccc1F
- T/C (dose: 3.75 mg/kg/injection, schedule: Q01DX005 (ip), vehicle: saline with Tween-80): 104 % of control
- T/C (dose: 7.5 mg/kg/injection, schedule: Q01DX005 (ip), vehicle: saline with Tween-80): 102 % of control
- T/C (dose: 15.0 mg/kg/injection, schedule: Q01DX005 (ip), vehicle: saline with Tween-80): 102 % of control and 93 % of control
- T/C [2]: 95 % of control

Structure (SMILES): COC(=O)c1cccc2c(=O)c(CCl)c(-c3ccccc3)sc12
- T/C (dose: 100.0 mg/kg/injection, schedule: Q01DX001 (ip), vehicle: saline with Tween-80): 93 % of control
- T/C (dose: 200.0 mg/kg/injection, schedule: Q01DX001 (ip), vehicle: saline with Tween-80): 91 % of control
- T/C (dose: 400.0 mg/kg/injection, schedule: Q01DX001 (ip), vehicle: saline with Tween-80): 91 % of control
